Source: patent US20110136751A1, “Use of Polyphenols in the Treatment of Cancer” (Green Molecular, priority 2009, published 2011)

Columns and labels:
KHOS-NP = experiment: IC50 on cell viability, Cell Counting Kit-8; assay type: cell-based; settings: Homo sapiens; code 28, KHOS-NP, Bone Osteosarcoma; cell viability 120 h after administration
Procedure: (§1) A panel of 36 human cell lines were first tested in terms of population doubling time and growth curves to determine the conditions for further assays. The cells were also tested to determine the dose of radiation that produces 50% cell viability (D50). […] Cell viability was determined 120 h after the administration of the compounds using the Cell Counting Kit-8 (Dojindo Molecular Technologies, Inc, Rockville, Md.). In the experiments, 0.1% SDS and 1% DMSO were used as positive and negative controls, respectively. Final concentrations of the compounds used in the experiments are listed below in Table 5: […]

A-673 = experiment: IC50 on cell viability, Cell Counting Kit-8; assay type: cell-based; settings: Homo sapiens, A673; code 36, A-673, Muscle Rhabdomyosarcoma; cell viability 120 h after administration
Procedure: as §1

MML-1 = experiment: IC50 on cell viability, Cell Counting Kit-8; assay type: cell-based; settings: Homo sapiens; code 27, MML-1, Skin Melanoma; cell viability 120 h after administration
Procedure: as §1

Colo 201 = experiment: IC50 on cell viability, Cell Counting Kit-8; assay type: cell-based; settings: Homo sapiens; code 5, Colo 201, Colorectal Adenocarcinoma; cell viability 120 h after administration
Procedure: as §1

HCT-15 = experiment: IC50 on cell viability, Cell Counting Kit-8; assay type: cell-based; settings: Homo sapiens; code 7, HCT-15, Colorectal Adenocarcinoma; cell viability 120 h after administration
Procedure: as §1

HCT 116 = experiment: IC50 on cell viability, Cell Counting Kit-8; assay type: cell-based; settings: Homo sapiens; code 6, HCT 116, Colorectal Carcinoma; cell viability 120 h after administration
Procedure: as §1

MEWO = experiment: IC50 on cell viability, Cell Counting Kit-8; assay type: cell-based; settings: Homo sapiens; code 26, MEWO, Skin Melanoma; cell viability 120 h after administration
Procedure: as §1

HT-29 xenografts = experiment: HT-29 xenograft growth; assay type: in vivo, nu/nu nude mice; settings: i.v., 40 mg of t-PTER or QUER/kg×day, single PF
Procedure: Tumor growth was measured during a 30-day period. Tumor volume, one week after inoculation and before PF administration, was of 56+15 mm3. A. […] B. Growth profile of control ([…]) and t-PTER- and QUER (∘) (20 mg of each PF/kg)-treated HT-29-bearing mice. Data are means±S.D. of 18-20 mice per group. The significant test refers, for all groups, to the comparison between PTER and/or QUER and controls (treated with physiological saline) (*P<0.01). For HT-29 cancer cell xenograft experiments, female nu/nu nude mice (ages 6 to 8 weeks; […] Tumor volume was calculated based on two dimensions, measured using calipers, and was expressed in cubic millimeters according to the formula: […] For histological analysis the surgical and xenograft tissue samples were fixed in 4% formaldehyde, paraffin embedded, and stained with hematoxilin & eosin and safran. […] This study was conducted in compliance with international laws and policies (EEC Directive 86/609, OJ L 358. 1, Dec. 12, 1987; and NIH Guide for the Care and Use of Laboratory Animals, NIH Publ. No. 85-23, 1985). X rays were administered using a […] SL75 linear accelerator from Philips. For this purpose each mouse was anesthetized with nembutal (50 mg/kg i.p.), and fixed on a Perspex platform.

[1] = system: Human melanoma (A375), breast cancer (MCF7), lung cancer (A549), and colon cancer (HT29) cell lines; experiment: Necrosis induction (LDH released to the extracellular medium); assay type: cell-based; settings: with increasing concentration; FIG. 10
Procedure: Necrosis induction was evaluated by measuring lactate dehydrogenase (LDH) activity released to the extracellular medium. Cells were exposed to polyphenols for 24-72 h. Results are expressed as relative LDH activity±SD (n=3) where control is 100.
The tumor cell death induced by pterostilbene appears to be partially independent of caspase activity.

[2] = system: Human melanoma (A375), breast cancer (MCF7), lung cancer (A549), and colon cancer (HT29) cell lines; experiment: Cell inhibition study (cell counting); assay type: cell-based; settings: for cell number (relative proliferation index): 0-100 μM, FIGS. 8A through 8D; for IC50: Homo sapiens, all cell lines (A375, MCF7, A549, HT29)
Procedure: (§2) Cancer cells (0.2×10^6 cells/well) were seeded in six well-plates and, 24 h later, were treated with PTER or RES (0-100 mM) (ethanol as solvent vehicle was at a conc. of 0.3%). Cell growth was analyzed using the Countess® Automated Cell Counter (Invitrogen). Results were expressed as relative proliferation index±SD (n=4) where control is 100.
(§3) The aim of this study was to determine whether pterostilbene causes cytotoxicity in human tumors at concentrations that are reliable under in vivo conditions; and, to identify which death-related molecular mechanisms may be activated by the compound. Human melanoma (A375), breast cancer (MCF7), lung cancer (A549), and colon cancer (HT29) cell lines were used in this set of experiments. Pterostilbene and resveratrol were used in a μM range, between 10 μM (below the IC50 for all cell lines) and 200 μM (an unachievable in vivo concentration). Cell cycle and apoptosis induction were determined by flow cytometry.
as §2, with “Cells from the cancer lines” for “Cancer cells”, “pterostilbene” for “PTER”, “resveratrol” for “RES”, “μM)” for “mM)”

[3] = cited from earlier work
caspase 3 = experiment: Caspase-3 activity (Apo-ONE Homogeneous Caspase-3 Assay); assay type: cell-based, human; settings: within a 24 h-period
Procedure: Aspase-3 activity was measured with Apo-ONE® Homogeneous Caspase-3 Assay (Promega). The assay was configured for 96 well plates (5000 cells/well). Cells were plated for 24 h. Capase-3/7 activities were evaluated 24 h after polyphenols addition. Fluorescence (a.u.) was expressed as relative index where control is 1. Results are expressed as relative proliferation index±SD (n=3).
(§4) The effects of pterostilbene and resveratrol on cell cycle were tested. […] Both DNA synthesis and tubulin polymerization were seriously affected.

[4] = system: Human melanoma (A375), breast cancer (MCF7), lung cancer (A549), and colon cancer (HT29) cell lines; experiment: Cell cycle study (flow cytometry); assay type: cell-based; settings: treated for 24 h; FIG. 9
Procedure: Cancer cells (0.2×10^6 cells/well) were seeded in six well-plates and, 24 h later, were treated for 24 h with different concentrations ([…]) of PTER or ReES. Cells were trypsinized and pelleted at 1000×g for 2 min. Cells were resuspended in PBS. Ethanol was added up to a final 70% conc. The DNA cellular content was analyzed by flow cytometry (10000 cell events were collected per sample). Results are expressed as % of total cells±SD (n=3).
as §3, §4

SMILES	IC50 (KHOS-NP) [µM]	IC50 (A-673) [µM]	IC50 (MML-1) [µM]	IC50 (Colo 201) [µM]	IC50 (HCT-15) [µM]	IC50 (HCT 116) [µM]	IC50 (MEWO) [µM]	CRC growth inhibition compared with the 20 mg/kg×day dose (HT-29 xenografts)	Necrosis (LDH activity released to the extracellular medium) [1]	inhibitory effect on human tumor cell growth versus resveratrol [2]	cell number (relative proliferation index) [2]	IC50 [2] [µM]	half-life in blood ([3]; rabbit, in vivo) [min]	caspase 3 activation (caspase 3)	cell cycle [4]	half-life in circulating blood ([3]; after i.v. administration of 20 mg/kg to e.g. rabbits) [min]
O=c1c(O)c(-c2ccc(O)c(O)c2)oc2cc(O)cc(O)c12 [QUER, quercetin]	15.7	4.09	10.8	18.1	12.4	56.9	8.59	not significantly different	–	–	–	–	–	–	–	–
COc1cc(/C=C/c2ccc(O)cc2)cc(OC)c1 [t-PTER, trans-3,5-dimethoxy-4′-hydroxystilbene]	25.6	5.8	16.9	29.8	49.5	45.2	39	not significantly different	progressively activated	stronger inhibitory effect	reduced cell number in a concentration- and time-dependent manner	> 10	~77.9	no caspase 3 activation was detected	arrested in S phase	–
Oc1ccc(/C=C/c2cc(O)cc(O)c2)cc1 [RI, trans-3,5,4′-trihydroxystilbene, reference compound]	20	6.73	10.3	37.4	> 100	31.4	17.1	–	progressively activated	–	reduced cell number in a concentration- and time-dependent manner	> 10	–	no caspase 3 activation was detected	arrested in S phase	~14.4
